In article PMC6017909, “Synthesis and Evaluation of the Tumor Cell Growth Inhibitory Potential of New Putative HSP90 Inhibitors” (Molecules : A Journal of Synthetic Chemistry and Natural …, 2018):

Key:
NCI-H460 [1] = assay: Cell-counting assay, 72-h drug exposure; format: cell-based; settings: Homo sapiens, read-out: Cell Growth Inhibitory Activity NCI-H460 IC50 72 h
Source text: For the cytotoxic activity studies and determination of GI50 concentrations in three different tumor cell lines, the cell culture conditions are described in Section 3.5. For the studies on the effect on % viable cells, cell cycle, cellular proliferation, and apoptosis, culture conditions are described in Section 3.6.1. For the remaining studies, the epithelial carcinoma cell line A431 and the non-small cell lung carcinoma cell line NCI-H460 were routinely grown in RPMI 1640 (Lonza, Vierviers, Belgium), supplemented with 10% (v/v) heat-inactivated fetal bovine serum (FBS, GIBCO, Invitrogen, Paisley, UK). The human peritoneal mesothelioma cell line STO was kindly provided by Dr. N. Zaffaroni (IRCCS Istituto Nazionale Tumori, Milan, Italy) and grown in 50/50 DMEM-Ham’s F12 medium (Lonza, Vierviers, Belgium), supplemented with 10% (v/v) heat-inactivated foetal bovine serum and 2 mM L-glutamine (L-Gln). All cell lines were maintained at 37 °C in a 5%/95% CO2/air atmosphere. All the compounds tested were freshly prepared by dissolving powder in dimethylsulfoxide (DMSO) (BDH Prolabo, Milan, Italy) and following dilution in culture medium. Cells were incubated with drugs for 48 h or 72 h (unless otherwise stated) at 37 °C in culture medium supplemented with 10% (v/v) heat-inactivated FBS; drug concentrations used for each assay and duration of treatments are reported in Legends to Figures.
Cellular sensitivity to drugs was evaluated by a cell-counting assay after 72-h drug exposure. Cells in the logarithmic phase of growth were seeded in duplicate into 6-well plates. Twenty-four hours after seeding, the drug was added to the medium. Cells were harvested 72 h after drug exposure and counted with a cell counter.

[2] = Viable cell number, trypan blue exclusion assay; format: cell-based; settings: human, NCI-H460 cells, read-out: Number of viable cells (in relation to Blank cells)
Method: NCI-H460 cells were plated in 6-well plates (1 × 10^5 cells/well) in RPMI-1640 medium with UltraGlutamine I and 25 mM Hepes (Lonza) supplemented with 10% FBS (PAA) at 37 °C in a humidified incubator with 5% CO2 for 24 h. […] These concentrations corresponded respectively to 5.2 μM and 7.8 μM for compound 5 and to 3.2 μM and 4.8 μM for compound 8. Cells were also incubated with medium only (Blank) or with the vehicle (solvent, H2O), corresponding to the highest concentration used when testing the compounds. Following treatment with the compounds, cells were further processed as follows.
Cell number and % viable cells was determined with the Trypan blue exclusion assay.

NCI-H460 [3] = assay: Sulforhodamine B (SRB) cell growth inhibition assay; format: cell-based; settings: Homo sapiens, 48 h treatment
Method: (§1) The following human tumor cell lines were used and maintained in RPMI-1640 medium with UltraGlutamine I and 25 mM Hepes (Lonza, Basel, Switzerland), supplemented with 5% FBS (Biowest): NCI-H460 (non-small cell lung adenocarcinoma), AGS (gastric adenocarcinoma) and MCF-7 (breast adenocarcinoma). The HFF-1 cell line (human foreskin fibroblasts) was cultured in DMEM High Glucose with L-Glutamine supplemented with 15% FBS. All cell lines were routinely maintained at 37 °C in a humidified incubator with 5% CO2. Cell number and viability were determined with the trypan blue exclusion assay. All the experiments were performed with exponentially growing cells presenting more than 90% cell viability.
(§2) The growth inhibitory effect of the compounds was assessed using the Sulforhodamine B (SRB) assay as previously described. Briefly, cells were plated into 96-well plates (5000 cells/well for MCF-7 and NCI-H460 cells and 7500 cells/well for AGS cells) and incubated for 24 h to adhere. Serial dilutions of the different compounds (ranging from 0 to 150 μM or from 0 to 50 μM) were then added to the cells. Cells were further incubated for 48 h. Following this period (or at the time the compound is added, T0), plates were fixed with 10% ice-cold trichloroacetic acid. Following staining with 0.4% SRB, plates were washed with 1% acetic acid and the bound dye solubilized with 10 mM Tris-Base. […] For the HFF-1 cell line, cells (15,000 cells/well) were plated into 96-well plates, allowed to adhere for 24 h and treated with the GI50 concentration of each compound for seven days. After this period, the SRB assay was carried out as described above. The effect of the maximum concentration of vehicle (solvent) of the compounds (H2O: 0.31% for compound 8 and 0.19% for compound 13) was also analyzed in each assay.

MCF7 = assay: as above; format: cell-based; settings: Homo sapiens, 48 h treatment
Method: as §1, §2

AGS = assay: as above; format: cell-based; settings: Homo sapiens, 48 h treatment
Method: as §1, §2

[4] = test system: A431 squamous cell carcinoma xenografts; assay: Tumor growth of xenografted mouse model; format: in vivo, nude mice
Method: Experiments were carried out using female athymic Swiss nude mice, 8–10 weeks old (Charles River, Calco, Italy). Mice were maintained in laminar flow rooms keeping temperature and humidity constant. Mice had free access to food and water. Experiments were approved by the Ethics Committee for Animal Experimentation of the Istituto Nazionale Tumori of Milan according to institutional guidelines. Epidermoid carcinoma cells, A-431 suspended in culture media were subcutaneously injected on the back of mice. When tumors were just palpable, the mice were randomly divided into two groups: control and compound-treated. Each group was constituted by 8 mice. Saline (0.9% NaCl) or compound solution (5 or 10 mg/kg, respectively) was i.p. administered daily during 3 weeks, to both groups. Tumor volume was assessed using calipers and determined according to the formula (d)^2xD/2.

HSP90 = target: T1, HSP90 (Homo sapiens, UniProt P07900); assay: HSP90 binding, fluorescence polarization with GM-FITC; settings: displacement of GM-FITC 5 nM, 30 nM HSP90, 4 °C, 4 h; read-out: Binding HSP90 (FP) IC50
T1 construct: purchased Stressgen SPP-776
Method: GM-FITC Geldanamycin-fluorescein-5-isothiocyanate (working concentration: 1–400 nM), supplied by Invivogen (06C23-MT, San Diego, CA, USA), was previously dissolved in DMSO to obtain 10 mM stock solutions and kept at −20 °C until use. […] The compounds were previously dissolved in DMSO to obtain stock solutions and kept at −20 °C. The day of experiment, the compounds were prepared by serial dilutions in assay buffer (HFB) containing 20 mM HEPES (K) pH 7.3, 50 mM KCl, 5 mM MgCl2, 20 mM Na2MoO4 and 0.01% NP40. Before each use, 0.1 mg/mL Bovine Gamma globulin and 2 mM DTT were freshly added. […] The plate was mixed on a shaker at 4 °C for 4 h, and the FP values in mP (millipolarization units) were recorded. […] Curve fitting was performed using Prism GraphPad software program (GraphPad software, Inc., San Diego, CA, USA).

IC50 (HSP90) [µM]	Compound	IC50 (NCI-H460 [1]) [µM]	viability at 48 h, 5.2 µM ([2]; 5.2 μM (GI50)) [%]	viability at 48 h, 7.8 µM ([2]; 7.8 μM (1.5× GI50)) [%]	GI50 (NCI-H460 [3]) [µM]	GI50 (MCF7) [µM]	GI50 (AGS) [µM]	Inhibition of tumor growth vs control group ([4]; 5 mg/kg i.p. daily for three weeks)	Inhibition of tumor growth vs control group ([4]; 10 mg/kg i.p. daily for three weeks)	Manifestations of toxicity (death and body weight loss) ([4]; 5 and 10 mg/kg i.p., three weeks)	viability at 48 h, 3.2 µM ([2]; 3.2 μM (GI50)) [%]	viability at 48 h, 4.8 µM ([2]; 4.8 μM (1.5× GI50)) [%]
–	O=c1c2ccccc2oc2c[n+](Cc3ccccc3)ccc12.[Br-] [Compound 5, 2-Benzyl-10-oxo-10H-9-oxa-2-azonia-anthracene bromide]	4.8 ± 0.1	71	49	5.2 ± 1.2	5.4 ± 0.6	6.9 ± 1.2	considerable inhibition of tumor growth	accentuated this difference to statistically significant values	no evident manifestations of toxicity	–	–
3.7 ± 0.03	O=c1c2ccccc2sc2c[n+](Cc3ccccc3)ccc12.[Br-] [Compound 8, 2-Benzyl-5-oxo-5H-thiochromeno[2,3-c]pyridin-2-ium bromide]	–	–	–	3.2 ± 0.1	3.2 ± 0.1	3.1 ± 0.3	–	–	–	57	29
